According to patent US20250352615A1, “COMPOSITIONS AND METHODS FOR THE MODULATION OF PIEZO1 AND TRPV4” (Duke University, priority 2021, published 2025):

Experiments:
[1] = tested on: pancreatic acini; experiment: CCK-induced [Ca2+]i in pancreatic acini; assay type: cell-based, mouse; design: effect on CCK-induced sustained [Ca2+]i elevation: dose or concentration left out as unconfirmed
Description: (§1) Mouse pancreatic acini were isolated using a standard collagenase digestion protocol. Isolated acini were plated on a thin-layered, Matrigel-coated, glass-bottom, culture plate (MatTek, P35G-0-14-C). Freshly isolated acini were used in each experiment.
(§2) Calcium imaging in pancreatic acini was performed as previously described. The chemicals used in calcium imaging experiments included the following: Yoda1 (Tocris; 5586), GsMTx4 (Abcam; ab141871), 5′,6′-EET (Santa Cruz Biotechnology; sc-221066), AA (Millipore Sigma; A3611), HC067047 (Tocris; 4100), GSK1016790A (Millipore Sigma; G0798), RN1734 (Tocris; 3746), AACOCF3 (Tocris; 1462), YM26734 (Tocris; 2522), GF109203X (Tocris; 0741), and CCK8 (Sigma-Aldrich).

[2] = target: T1, Piezo1 (Mus musculus, UniProt E2JF22); experiment: Calcium imaging of Yoda1 (Piezo1)-mediated [Ca2+]i in pancreatic acini; assay type: cell-based; conditions: for effect on Yoda1-induced sustained [Ca2+]i elevation, YM26734 and AACOCF3 together: YM26734 10 μM + AACOCF3 30 μM, preincubated 10 minutes; for effect of protein kinase A and C blockers on Yoda1-induced sustained calcium elevation: KT5720 5 μM, GF109203X 20 μM
T1 construct: endogenous in cells; host or cells: freshly isolated mouse pancreatic acini (WT = Piezo1 fl/fl on a C57BL/6J background)
Description: as §1, §2

[3] = tested on: pancreatic acini; experiment: Mitochondrial depolarization in pancreatic acini (TMRE); assay type: cell-based, mouse
Description: Live-cell mitochondrial depolarization was analyzed using the mitochondrial labeling dye, TMRE. Isolated acini were plated on a thin-layered, Matrigel-coated, glass-bottom culture plate with DMEM/F12 and 10% FBS media and placed in a CO2 incubator for 1 hr at 37° C. After 1 hr, the acini were incubated with TMRE (200 nM) in the bath buffer containing 140 mM NaCl, 4.7 mM KCl, 2.0 CaCl2, 1 mM MgCl2, 10 mM HEPES, and 10 mM glucose (pH adjusted to 7.4 with NaOH) for 30 minutes. The TMRE dye was washed and replaced with fresh bath buffer. The images were captured with a Zeiss Axio observer Z1 microscope with MetaMorph software (Molecular Devices) at intervals of 600 ms. TMRE was excited at 540-600 nm and emission collected at 585-675 nm. Carbonyl cyanide 4-(trifluoromethoxy) phenylhydrazone (FCCP), which uncouples the oxidative phosphorylation process and depolarizes mitochondria, was used as a positive control. A maximum of 2 mitochondrial puncta were taken per acinar cell.

[4] = tested on: pancreatic acini; experiment: Cell death assays of pancreatic acini (LDH release, Live/Dead, live-cell imaging); assay type: cell-based
Description: The viability of pancreatic acini with Yoda1 and CCK treatments was analyzed using the Live/Dead Cell Imaging Kit (Thermo Fisher Scientific, catalog R37601) or the LDH Release Assay Kit (Promega, catalog G1780).

[5] = tested on: pancreatic acini; experiment: Trypsinogen activation in pancreatic acini (BZiPAR); assay type: cell-based, mouse
Description: To visualize Piezo1-induced trypsinogen activation, acini were loaded with active trypsin enzyme substrate BZiPAR (10 μM). Na-HEPES buffer with 2 mM Ca^2+ was used during imaging. A Zeiss Axio observer Z1 with a high-sensitivity EMCCD camera with a ×40/0.75 EC-Plan-NeoFluar DIC objective was used to capture the Z-stack images with stack thickness of 3 μm at an interval of 12 seconds. The BZiPAR fluorescent wavelength Ex/Em was 498/521 nm. BZiPAR was excited at 470-510 nm and emission collected at 495-550 nm. The captured images were analyzed with MetaMorph software (Molecular Devices).

[6] = target: T1, Piezo1; experiment: Calcium imaging of Piezo1-mediated [Ca2+]i in mouse PSCs; assay type: cell-based; conditions: for effect on Yoda1-mediated sustained [Ca2+]i elevation, YM26734 and AACOCF3 together: YM26734 10 μM + AACOCF3 30 μM, Yoda1 25 μM, PSCs from WT mice
Description: Mouse and human PSCs were isolated using collagenase digestion. Modified Krebs Henseleit Buffer (KHB) solution (100 mL) was prepared as previously described by Romac et al., Nat. Commun. 9(1):1715 (2018). Pancreatic tissue was digested with 2 mg of collagenase NB 8 (SERVA, catalog 17456) dissolved in 10 mL of modified KHB solution containing 1 mg soybean trypsin inhibitor (SBTI 1-S; Millipore Sigma, catalog T9003) and 20 mg BSA (Thermo Fisher Scientific; BP1600-100). Digestion solution (5 mL) was used to inflate the pancreas. Pancreas with 5 mL of digestion solution was incubated in a shaking water bath for 10 minutes at 37° C. The solution was then discarded. The pancreas tissue was cut into small pieces and digested with fresh 5 mL digestion buffer. Tissue was incubated in a shaking water bath for 40 minutes at 37° C. The cells were then separated from tissue by pipetting up-down with a 10 mL pipette and passed sequentially through a 70 μm and a 40 μm cell strainer. The filtrate was centrifuged at 150×g for 3 minutes at room temperature. The cells were washed with 10 mL Leibovitz's media (Thermo Fisher Scientific, catalog 11415-064), passed through a 20 μm filter, and centrifuged at 80×g for 3 minutes at room temperature. The supernate was removed, and isolated stellate cells were plated on a thin-layered Matrigel-coated glass bottom culture plate (MatTek, P35G-0-14-C). Before plating the cells, Matrigel solution (Corning, catalog 354234) at a ratio of 1.5:100 DMEM/F12 (Thermo Fisher Scientific, catalog 11330-032) was poured onto the culture plate and incubated for 2 hr at 37° C. to form a thin layer of Matrigel coating. Matrigel mixture was removed, and the plate was washed with PBS before cells were plated. Cell culture media, DMEM/F12 with 5% FBS was used for mouse stellate cells. Fresh, human pancreatic tissue was digested with collagenase as described above with modifications. Collagenase (2.5 mg) in 10 mL of modified KHB solution was used for digestion. The digested tissues were filtered through a 100 μm cell strainer. The cells were cultured with DMEM/F12 with 10% FBS in a Matrigel-coated plate. After 24 hr, the cell media was replaced with fresh media to remove unattached and dead cells. After 2 days, cells were immunostained for GFAP and used for experiments. Perinuclear fat droplets were stained with BODIPY 493/503 (4,4-Difluoro-1,3,5,7,8-Pentamethyl-4-Bora-3a,4a-Diaza-s-Indacene; Invitrogen, catalog D3922) to confirm stellate cell quiescence. The cell viability following Yoda1 treatment was analyzed using the Live/Dead cell imaging kit (Thermo Fisher Scientific, catalog R37601). RNAs were isolated using the RiboPure Kit (Invitrogen, catalog AM1924) according to manufacturer's instructions.
Fluid shear stress and mechanical pushing applied to stellate cells were achieved as previously described by Wang et al., J. Clin. Invest. 126(12): 4527-4536 (2016). Parallel-plate fluid flow chambers (μ-Slide I 0.4 Luer, or μ-Slide I 0.2 Luer from Ibidi) were used for fluid shear stress experiments. The fluid shear stress (T) was calculated using the formula: τ=η×[…] φ for μ-Slide I 0.4 Luer and τ=η×330.4 φ for μ-Slide I 0.2 Luer, where r represents viscosity of the medium and φ represents flow rate (according to the manufacturer's instructions, Ibidi). Mechanical pushing was achieved by applying a blunt borosilicate glass pipette once to the cell membrane with a deflection of 2-3 μm for 1 second using a micromanipulator (World Precision Instruments).
Calcium 6-QF (Molecular Devices) dye was used for live-cell calcium imaging as described by Romac et al., Nat. Commun. 9(1):1715 (2018). Cells were imaged in HBSS buffer with 2 mM Ca^2+. Faintly and highly fluorescent loaded cells were excluded from analysis. […]

[7] = target: T2, TRPV4 (Mus musculus, UniProt Q9EPK8); experiment: Calcium imaging of TRPV4-mediated [Ca2+]i in pancreatic acini (agonists, shear stress, Yoda1 sustained phase); assay type: cell-based; conditions: for agonist effect on [Ca2+]i: GSK101 50 nM, arachidonic acid 20 μM, 5′,6′-EET 5 μM
T2 construct: endogenous in cells; host or cells: freshly isolated mouse pancreatic acini (C57BL/6J WT)
Description: as §1
Parallel-plate fluid flow chambers (μ-Slide I 0.4 Luer, and μ-Slide I 0.2 Luer from Ibidi GmbH) were used to measure the shear stress-induced changes in intracellular calcium, mitochondrial depolarization, and trypsin activation. The constant flow rate with shear stress (T) was determined as follows: τ=η×[…] φ for μ-Slide I 0.4 Luer and τ=η×330.4 φ for μ-Slide I 0.2 Luer, where η=viscosity of the medium and φ=flow rate (according to the manufacturer's instructions, Ibidi).
as §2

T1 sequence (E2JF22 whole entry): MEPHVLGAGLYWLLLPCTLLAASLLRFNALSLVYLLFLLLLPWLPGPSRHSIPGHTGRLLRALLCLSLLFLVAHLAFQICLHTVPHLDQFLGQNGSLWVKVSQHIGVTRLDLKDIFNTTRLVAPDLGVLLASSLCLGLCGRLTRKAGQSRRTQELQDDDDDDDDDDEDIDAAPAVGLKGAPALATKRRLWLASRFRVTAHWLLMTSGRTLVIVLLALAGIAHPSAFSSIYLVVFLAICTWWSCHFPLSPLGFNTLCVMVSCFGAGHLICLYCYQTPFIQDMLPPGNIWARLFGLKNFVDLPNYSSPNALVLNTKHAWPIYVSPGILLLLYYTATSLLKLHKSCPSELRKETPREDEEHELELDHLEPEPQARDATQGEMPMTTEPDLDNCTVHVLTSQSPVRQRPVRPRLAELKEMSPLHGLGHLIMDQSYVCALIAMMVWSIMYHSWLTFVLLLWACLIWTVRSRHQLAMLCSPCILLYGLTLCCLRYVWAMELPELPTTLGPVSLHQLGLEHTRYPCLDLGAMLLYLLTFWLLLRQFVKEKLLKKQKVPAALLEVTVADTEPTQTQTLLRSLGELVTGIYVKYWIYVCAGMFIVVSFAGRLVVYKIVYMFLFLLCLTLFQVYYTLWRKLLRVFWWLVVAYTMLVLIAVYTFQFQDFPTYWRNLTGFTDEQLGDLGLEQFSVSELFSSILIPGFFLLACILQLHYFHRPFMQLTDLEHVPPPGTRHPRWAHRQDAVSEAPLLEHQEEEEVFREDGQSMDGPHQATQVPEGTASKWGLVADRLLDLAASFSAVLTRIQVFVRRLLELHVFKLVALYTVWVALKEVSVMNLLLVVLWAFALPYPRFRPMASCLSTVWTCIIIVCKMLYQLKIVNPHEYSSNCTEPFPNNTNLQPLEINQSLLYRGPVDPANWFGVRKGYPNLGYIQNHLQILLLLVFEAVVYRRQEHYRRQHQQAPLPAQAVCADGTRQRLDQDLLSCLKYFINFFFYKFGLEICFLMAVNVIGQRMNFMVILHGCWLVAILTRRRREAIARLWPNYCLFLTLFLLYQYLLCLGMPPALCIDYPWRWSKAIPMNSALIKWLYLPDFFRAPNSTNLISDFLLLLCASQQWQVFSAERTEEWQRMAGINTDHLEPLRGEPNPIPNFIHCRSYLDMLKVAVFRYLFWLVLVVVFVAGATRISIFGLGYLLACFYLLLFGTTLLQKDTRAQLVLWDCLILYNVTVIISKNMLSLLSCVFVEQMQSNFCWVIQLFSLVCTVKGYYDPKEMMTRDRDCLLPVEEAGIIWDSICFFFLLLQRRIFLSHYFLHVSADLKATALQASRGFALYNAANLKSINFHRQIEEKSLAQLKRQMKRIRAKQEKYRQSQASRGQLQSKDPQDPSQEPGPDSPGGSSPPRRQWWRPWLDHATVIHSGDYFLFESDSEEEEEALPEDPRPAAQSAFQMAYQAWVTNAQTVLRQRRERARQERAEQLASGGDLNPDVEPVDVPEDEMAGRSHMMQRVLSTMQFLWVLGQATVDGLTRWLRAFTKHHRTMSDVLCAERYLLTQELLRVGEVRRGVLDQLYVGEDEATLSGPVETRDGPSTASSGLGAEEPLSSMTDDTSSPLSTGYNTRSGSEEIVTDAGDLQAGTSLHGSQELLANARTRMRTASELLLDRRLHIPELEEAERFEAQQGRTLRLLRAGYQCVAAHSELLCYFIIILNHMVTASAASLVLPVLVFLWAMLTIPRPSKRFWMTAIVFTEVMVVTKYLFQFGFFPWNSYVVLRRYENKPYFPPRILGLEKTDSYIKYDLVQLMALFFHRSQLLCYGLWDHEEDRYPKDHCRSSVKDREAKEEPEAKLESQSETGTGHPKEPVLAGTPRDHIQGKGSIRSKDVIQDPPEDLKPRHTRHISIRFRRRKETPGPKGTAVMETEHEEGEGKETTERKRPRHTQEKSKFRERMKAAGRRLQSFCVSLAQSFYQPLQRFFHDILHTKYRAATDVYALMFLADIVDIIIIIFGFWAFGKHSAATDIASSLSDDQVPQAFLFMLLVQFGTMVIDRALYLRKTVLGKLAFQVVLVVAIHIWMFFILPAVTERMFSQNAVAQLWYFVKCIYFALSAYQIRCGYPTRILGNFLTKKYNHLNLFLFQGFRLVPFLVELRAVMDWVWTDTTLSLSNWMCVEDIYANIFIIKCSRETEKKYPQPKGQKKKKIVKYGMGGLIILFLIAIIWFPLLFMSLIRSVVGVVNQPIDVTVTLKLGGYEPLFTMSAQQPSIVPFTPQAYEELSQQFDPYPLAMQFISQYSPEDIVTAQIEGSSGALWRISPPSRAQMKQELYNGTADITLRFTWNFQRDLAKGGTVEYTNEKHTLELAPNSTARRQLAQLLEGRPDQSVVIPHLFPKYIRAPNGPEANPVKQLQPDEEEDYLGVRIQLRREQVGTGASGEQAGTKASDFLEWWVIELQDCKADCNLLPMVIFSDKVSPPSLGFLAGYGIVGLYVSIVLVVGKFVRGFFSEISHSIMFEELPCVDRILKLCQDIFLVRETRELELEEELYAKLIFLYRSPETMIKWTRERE
T2 sequence (Q9EPK8 whole entry): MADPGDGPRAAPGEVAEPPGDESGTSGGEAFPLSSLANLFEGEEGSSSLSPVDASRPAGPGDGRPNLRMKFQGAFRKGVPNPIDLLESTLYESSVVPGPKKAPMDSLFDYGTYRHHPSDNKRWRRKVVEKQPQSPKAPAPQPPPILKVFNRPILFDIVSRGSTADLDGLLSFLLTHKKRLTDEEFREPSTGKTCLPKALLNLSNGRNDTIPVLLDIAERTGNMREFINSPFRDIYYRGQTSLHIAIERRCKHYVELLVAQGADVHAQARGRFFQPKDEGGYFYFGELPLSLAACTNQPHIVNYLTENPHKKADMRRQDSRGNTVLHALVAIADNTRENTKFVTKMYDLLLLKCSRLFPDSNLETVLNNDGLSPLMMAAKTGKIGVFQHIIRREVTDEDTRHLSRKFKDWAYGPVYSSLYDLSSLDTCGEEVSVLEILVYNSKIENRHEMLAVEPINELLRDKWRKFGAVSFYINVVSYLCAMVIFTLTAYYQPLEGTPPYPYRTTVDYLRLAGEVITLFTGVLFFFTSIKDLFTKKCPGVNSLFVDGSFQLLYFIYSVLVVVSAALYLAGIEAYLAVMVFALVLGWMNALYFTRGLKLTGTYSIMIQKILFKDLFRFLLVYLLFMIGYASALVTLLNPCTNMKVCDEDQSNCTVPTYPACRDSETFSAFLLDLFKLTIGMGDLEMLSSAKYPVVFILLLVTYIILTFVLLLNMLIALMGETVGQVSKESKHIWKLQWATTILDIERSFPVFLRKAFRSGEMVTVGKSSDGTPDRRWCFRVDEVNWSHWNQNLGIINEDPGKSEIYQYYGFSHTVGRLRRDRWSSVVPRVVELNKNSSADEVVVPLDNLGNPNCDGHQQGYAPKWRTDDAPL

Cc1cccc(F)c1C(=O)Nc1cnc(-c2cc3c(cc2Cl)OC(F)(F)O3)cn1 [CM4620]
effect on CCK-induced sustained [Ca2+]i elevation ([1]; CM4620 preincubated 1 hr, CCK): blocked the sustained elevation in [Ca^2+]i produced by CCK
completeness of block of CCK-induced [Ca2+]i rise ([1]; CM4620 preincubated 1 hr, either concentration of CCK, residual calcium wave): did not completely block the [Ca^2+]i rise
effect on Yoda1-induced [Ca2+]i rise ([2]; CM4620 5 μM preincubated 1 hr, Yoda1 25 μM): did not alter the rise in [Ca^2+]i following Yoda1 stimulation

CCK: secretagogue that stimulates pancreatic enzyme secretion by increasing [Ca2+]i
time to mitochondrial depolarization after application ([3]; Yoda1 50 μM, CCK 10 nM): > 10 min
cell damage (LDH release) in WT vs Piezo1aci-KO acini ([4]; CCK 1 nM): produced comparable cell damage
acinar cell death, both Yoda1 and CCK vs individual application ([4]; Yoda1 50 μM + CCK 1 nM, WT acini): acinar cell death was greater
CCK-mediated trypsin activation, WT vs Piezo1aci-KO acini ([5]; CCK 10 nM): similar
trypsin activation (BZiPAR fluorescence) ([5]; Yoda1 50 μM or CCK 10 nM): activated trypsin in pancreatic acini over time
time to trypsin activation after application ([5]; Yoda1 50 μM, CCK 10 nM): > 20 min

C[C@H](CCC(=O)O)C[C@H](C)C[C@H](C)C(=O)/C=C(\O)[C@H](C)C[C@H](C)C/C=C/[C@@H](C)[C@@H](O)[C@@H](C)[C@@H](O)C[C@@H]1CC[C@@](C)([C@H]2CC[C@@](C)([C@@H](C)O)O2)O1 [ionomycin]
[Ca2+]i response to ionomycin after Yoda1 (25 μM) treatment ([6]; ionomycin 1 μM, mouse PSCs): All cells responded

CC(C)NCCN(C(C)C)S(=O)(=O)c1ccc(Cl)cc1Cl [RN1734]
effect on GSK101 (50 nM)-induced [Ca2+]i increase ([7]; HC067 100 nM, RN1734 30 μM): inhibited

CCCCCCCCCCCC(=O)c1c(O)c(C(=O)CCCCCCCCCCC)c(O)c(C2CC(c3ccc(O)cc3)Oc3cc(O)ccc32)c1O (stereo not drawn) [YM26734]
effect on Yoda1-mediated sustained [Ca2+]i elevation, YM26734 and AACOCF3 together [6]: significantly inhibited the Yoda1-mediated sustained elevation in [Ca^2+]i
effect on Yoda1-induced sustained [Ca2+]i elevation, YM26734 and AACOCF3 together ([2]; Yoda1 25 μM): blocked the Yoda1-induced sustained [Ca^2+]i elevation
effect of the secretory PLA2 inhibitor alone on Yoda1-induced sustained [Ca2+]i elevation ([2]; YM26734 10 μM, Yoda1 25 μM): substantial and capable of blocking the sustained [Ca^2+]i elevation

CC(=O)OCOC(=O)CN(CC(=O)OCOC(C)=O)c1ccccc1OCCOc1ccccc1N(CC(=O)OCOC(C)=O)CC(=O)OCOC(C)=O [BAPTA-AM]
effect on Yoda1-induced mitochondrial depolarization ([3]; BAPTA-AM 20 μM preincubated 20 minutes): protected from Yoda1-induced mitochondrial depolarization
effect on CCK-induced [Ca2+]i ([1]; BAPTA-AM 20 μM preincubated 30 minutes, CCK 1 nM): completely eliminated the effect of CCK on [Ca^2+]i
effect on Yoda1-induced LDH release ([4]; BAPTA-AM preincubated 30 minutes, Yoda1 50 μM): protected pancreatic acini from Yoda1-induced LDH release
effect on Yoda1-induced sustained Ca2+ rise ([2]; BAPTA-AM 20 μM preincubated 30 minutes, Yoda1 50 μM): abolished the sustained Ca^2+ rise

CCCCC/C=C\C/C=C\C/C=C\C/C=C\CCCC(=O)C(F)(F)F [AACOCF3]
effect on Yoda1-mediated sustained [Ca2+]i elevation, YM26734 and AACOCF3 together [6]: significantly inhibited the Yoda1-mediated sustained elevation in [Ca^2+]i
effect on Yoda1-induced sustained [Ca2+]i elevation, YM26734 and AACOCF3 together ([2]; Yoda1 25 μM): blocked the Yoda1-induced sustained [Ca^2+]i elevation

CCCCC/C=C\C/C=C\C/C=C\C/C=C\CCCC(=O)O [AA, arachidonic acid]
agonist effect on [Ca2+]i [7]: induced significant increases in [Ca^2+]i

CCCCCCOC(=O)[C@]1(O)C[C@@H]2O[C@@]1(C)n1c3ccccc3c3c4c(c5c6ccccc6n2c5c31)C(=O)NC4 [KT5720]
effect of protein kinase A and C blockers on Yoda1-induced sustained calcium elevation [2]: did not significantly affect the Yoda1-induced sustained calcium elevation

CN(C)CCCn1cc(C2=C(c3c[nH]c4ccccc34)C(=O)NC2=O)c2ccccc21 [GF109203X]
effect of protein kinase A and C blockers on Yoda1-induced sustained calcium elevation [2]: did not significantly affect the Yoda1-induced sustained calcium elevation

CCCCC/C=C\C/C=C\C/C=C\CC1OC1CCCC(=O)O (stereo not drawn) [5′,6′-EET, 5′,6′-epoxyeicosatrienoic acid]
agonist effect on [Ca2+]i [7]: induced significant increases in [Ca^2+]i
